# Data published in US9695171B2, “3,4-disubstituted-1 H-pyrrolo[2,3-b]pyridines and 4,5-disubstituted-7H-pyrrolo[2,3-c]pyridazines as LRRK2 inhibitors” (Pfizer Inc., priority 2013, dated 2017).
# Target: T1, GST-tagged truncated LRRK2 (Homo sapiens, UniProt Q5S007)
# T1 construct: GST-tagged truncated LRRK2 from Invitrogen (Cat # PV4874); GST; purchased Invitrogen PV4874
# Test: LRRK2 kinase assay (Lantha Screen)
# Assay type: biochemical
# Conditions: 1 mM ATP (head); a = geometric mean of >=4 determinations, b = single determination; read-out: LRRK2 LANTHA EC50 at 1 mM ATP; Geometric mean of 2-3 determinations unless otherwise indicated
# Description: LRRK2 kinase activity was measured using Lantha Screen technology from Invitrogen. GST-tagged truncated LRRK2 from Invitrogen (Cat # PV4874) was incubated with a fluorescein-labeled peptide substrate based upon ezrin/radixin/moesin (ERM), also known as LRRKtide (Invitrogen cat # PR8976A), in the presence of a dose response of compound. Upon completion, the assay was stopped and detected with a terbium labeled anti-phospho-ERM antibody (Invitrogen, cat # PR8975A). […] The compound dose response was prepared by diluting compound to a top concentration of 3.16 mM in 100% DMSO and serial diluted by half-log in DMSO 11 times. Aliquots (3.5 μL) of the 100% DMSO dose response were mixed with 46.5 μL water then 1 μL of this mixture was added to the 3 μL substrate mix in the 384-well plate. The kinase reaction was started with 3 μL of a working solution of LRRK2 enzyme at a concentration of 4 μg/mL. […] The reaction was allowed to progress at room temperature for two hours and then stopped with the addition of 7 μL of detection buffer (20 mM Tris pH 7.6, 0.01% NP-40, 0.02% NaN3, 6 mM EDTA with 2 nM terbium labeled anti-phospho-ERM). After an incubation of 1 hour at room temperature, the plate was read on an Envision with an excitation wavelength of 340 nm and a reading emission at both 520 nm and 495 nm. The ratio of the 520 nm and 495 nm emission was used to analyze the data.
# T1 sequence (Q5S007 970-2527 limits assumed): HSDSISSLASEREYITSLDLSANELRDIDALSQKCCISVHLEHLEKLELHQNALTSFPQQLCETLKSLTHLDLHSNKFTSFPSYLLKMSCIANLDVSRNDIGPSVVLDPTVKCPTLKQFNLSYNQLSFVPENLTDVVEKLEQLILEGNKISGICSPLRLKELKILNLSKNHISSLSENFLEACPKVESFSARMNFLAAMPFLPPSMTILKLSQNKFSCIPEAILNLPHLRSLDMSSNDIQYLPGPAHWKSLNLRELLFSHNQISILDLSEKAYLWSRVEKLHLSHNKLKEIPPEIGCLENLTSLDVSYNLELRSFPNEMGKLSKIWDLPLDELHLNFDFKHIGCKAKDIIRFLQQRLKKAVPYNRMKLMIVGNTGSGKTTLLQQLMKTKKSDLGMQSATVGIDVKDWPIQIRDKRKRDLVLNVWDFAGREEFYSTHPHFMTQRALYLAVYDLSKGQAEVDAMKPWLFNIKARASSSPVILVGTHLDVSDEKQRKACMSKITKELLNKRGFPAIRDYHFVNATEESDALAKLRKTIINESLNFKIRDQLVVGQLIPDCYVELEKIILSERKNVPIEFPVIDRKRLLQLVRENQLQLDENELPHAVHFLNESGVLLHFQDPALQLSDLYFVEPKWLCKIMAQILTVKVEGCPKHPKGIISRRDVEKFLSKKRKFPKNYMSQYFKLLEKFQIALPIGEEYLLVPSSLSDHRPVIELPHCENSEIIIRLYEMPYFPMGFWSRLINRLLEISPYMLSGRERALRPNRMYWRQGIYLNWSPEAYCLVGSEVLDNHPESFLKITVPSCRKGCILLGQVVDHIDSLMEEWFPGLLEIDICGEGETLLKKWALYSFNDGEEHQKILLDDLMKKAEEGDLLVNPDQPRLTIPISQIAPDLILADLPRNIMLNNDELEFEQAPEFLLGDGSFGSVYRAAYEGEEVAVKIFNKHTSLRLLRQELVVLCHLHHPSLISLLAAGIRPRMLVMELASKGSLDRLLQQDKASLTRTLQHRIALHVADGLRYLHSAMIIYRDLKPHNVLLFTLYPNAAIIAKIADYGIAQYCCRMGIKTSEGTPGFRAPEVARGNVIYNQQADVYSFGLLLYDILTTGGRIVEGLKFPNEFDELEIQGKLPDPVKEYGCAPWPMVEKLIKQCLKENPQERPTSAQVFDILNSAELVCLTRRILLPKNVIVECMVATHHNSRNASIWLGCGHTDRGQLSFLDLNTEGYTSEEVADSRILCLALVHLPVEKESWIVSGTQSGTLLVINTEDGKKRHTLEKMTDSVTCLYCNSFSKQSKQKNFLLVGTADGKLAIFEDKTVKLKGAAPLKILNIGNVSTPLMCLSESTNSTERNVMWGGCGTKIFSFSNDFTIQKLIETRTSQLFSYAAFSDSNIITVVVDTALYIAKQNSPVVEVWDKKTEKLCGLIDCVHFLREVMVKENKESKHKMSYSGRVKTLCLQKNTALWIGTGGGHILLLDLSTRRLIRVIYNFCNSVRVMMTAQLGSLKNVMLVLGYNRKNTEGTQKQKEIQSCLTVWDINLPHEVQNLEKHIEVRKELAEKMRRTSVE
row,EC50,SMILES
1,130 nM,"Fc1ccc(F)c(-c2c[nH]c3nccc(N4CCOCC4)c23)c1 [Example 22, 3-(2,5-difluorophenyl)-4-(morpholin-4-yl)-1H-pyrrolo[2,3-b]pyridine]"
2,16.8 nM,"Fc1cccc(-c2c[nH]c3nccc(N4CCOCC4)c23)c1F [Example 24, 3-(2,3-difluorophenyl)-4-(morpholin-4-yl)-1H-pyrrolo[2,3-b]pyridine]"
3,29 nM,"Fc1ccccc1-c1c[nH]c2nccc(N3CCOCC3)c12 [Example 26, 3-(2-fluorophenyl)-4-(morpholin-4-yl)-1H-pyrrolo[2,3-b]pyridine]"
4,57.6 nM,"Fc1ccc(Cl)cc1-c1c[nH]c2nccc(N3CCOCC3)c12 [Example 27, 3-(5-chloro-2-fluorophenyl)-4-(morpholin-4-yl)-1H-pyrrolo[2,3-b]pyridine]"
5,72.5 nM,"OCc1ccc(F)c(-c2c[nH]c3nccc(N4CCOCC4)c23)c1 [Example 29, {4-fluoro-3-[4-(morpholin-4-yl)-1H-pyrrolo[2,3-b]pyridin-3-yl]phenyl}methanol]"
6,40.7 nM,"Fc1c(Cl)cccc1-c1c[nH]c2nccc(N3CCOCC3)c12 [Example 32, 3-(3-chloro-2-fluorophenyl)-4-(morpholin-4-yl)-1H-pyrrolo[2,3-b]pyridine]"
7,147 nM,"Fc1ccc(-c2c[nH]c3nccc(N4CCOCC4)c23)c(F)c1 [Example 37, 3-(2,4-difluorophenyl)-4-(morpholin-4-yl)-1H-pyrrolo[2,3-b]pyridine]"
8,140 nM,"N#Cc1cc(F)cc(-c2c[nH]c3nccc(N4CCOCC4)c23)c1 [Example 39, 3-fluoro-5-[4-(morpholin-4-yl)-1H-pyrrolo[2,3-b]pyridin-3-yl]benzonitrile]"
9,226 nM,"N#Cc1cc(-c2c[nH]c3nccc(N4CCOCC4)c23)ccc1F [Example 41, 2-fluoro-5-[4-(morpholin-4-yl)-1H-pyrrolo[2,3-b]pyridin-3-yl]benzonitrile]"
10,144 nM,"N#Cc1ccc(F)c(-c2c[nH]c3nccc(N4CCOCC4)c23)c1 [Example 47, 4-fluoro-3-[4-(morpholin-4-yl)-1H-pyrrolo[2,3-b]pyridin-3-yl]benzonitrile]"
11,217 nM,"N#Cc1ccc(-c2c[nH]c3nccc(N4CCOCC4)c23)c(F)c1 [Example 48, 3-fluoro-4-[4-(morpholin-4-yl)-1H-pyrrolo[2,3-b]pyridin-3-yl]benzonitrile]"

# Continued, molecule first:
row,SMILES,EC50
1,"N#Cc1cccc(-c2c[nH]c3nccc(N4CCOCC4)c23)n1 [Example 19, 6-[4-(morpholin-4-yl)-1H-pyrrolo[2,3-b]pyridin-3-yl]pyridine-2-carbonitrile]",47.5 nM
2,"Clc1cccc(-c2c[nH]c3nccc(N4CCOCC4)c23)c1 [Example 20, 3-(3-chlorophenyl)-4-(morpholin-4-yl)-1H-pyrrolo[2,3-b]pyridine]",53.7 nM
3,"Fc1cc(Cl)cc(-c2c[nH]c3nccc(N4CCOCC4)c23)c1 [Example 21, 3-(3-chloro-5-fluorophenyl)-4-(morpholin-4-yl)-1H-pyrrolo[2,3-b]pyridine]",51.5 nM
4,"Clc1ccccc1-c1c[nH]c2nccc(N3CCOCC3)c12 [Example 23, 3-(2-chlorophenyl)-4-(morpholin-4-yl)-1H-pyrrolo[2,3-b]pyridine]",143 nM
5,"Fc1cccc(-c2c[nH]c3nccc(N4CCOCC4)c23)c1 [Example 25, 3-(3-fluorophenyl)-4-(morpholin-4-yl)-1H-pyrrolo[2,3-b]pyridine]",34.5 nM
6,"OCc1cccc(-c2c[nH]c3nccc(N4CCOCC4)c23)c1 [Example 28, {3-[4-(morpholin-4-yl)-1H-pyrrolo[2,3-b]pyridin-3-yl]phenyl}methanol]",96.3 nM
7,"Cc1nnc(-c2cccc(-c3c[nH]c4nccc(N5CCOCC5)c34)c2)o1 [Example 30, 3-[3-(5-methyl-1,3,4-oxadiazol-2-yl)phenyl]-4-(morpholin-4-yl)-1H-pyrrolo[2,3-b]pyridine]",179 nM
8,"COc1cccc(-c2c[nH]c3nccc(N4CCOCC4)c23)c1 [Example 31, 3-(3-methoxyphenyl)-4-(morpholin-4-yl)-1H-pyrrolo[2,3-b]pyridine]",124 nM
9,"Fc1cc(F)c(F)c(-c2c[nH]c3nccc(N4CCOCC4)c23)c1 [Example 33, 4-(morpholin-4-yl)-3-(2,3,5-trifluorophenyl)-1H-pyrrolo[2,3-b]pyridine]",69.7 nM
10,"Fc1cc(F)cc(-c2c[nH]c3nccc(N4CCOCC4)c23)c1 [Example 34, 3-(3,5-difluorophenyl)-4-(morpholin-4-yl)-1H-pyrrolo[2,3-b]pyridine]",43.3 nM
11,"Clc1ncccc1-c1c[nH]c2nccc(N3CCOCC3)c12 [Example 35, 3-(2-chloropyridin-3-yl)-4-(morpholin-4-yl)-1H-pyrrolo[2,3-b]pyridine]",110 nM
12,"c1ccc(-c2c[nH]c3nccc(N4CCOCC4)c23)cc1 [Example 36, 4-(morpholin-4-yl)-3-phenyl-1H-pyrrolo[2,3-b]pyridine]",49.7 nM
13,"Cc1cc(F)cc(-c2c[nH]c3nccc(N4CCOCC4)c23)c1 [Example 38, 3-(3-fluoro-5-methylphenyl)-4-(morpholin-4-yl)-1H-pyrrolo[2,3-b]pyridine]",22.9 nM
14,"COc1ccc(F)c(F)c1-c1c[nH]c2nccc(N3CCOCC3)c12 [Example 40, 3-(2,3-difluoro-6-methoxyphenyl)-4-(morpholin-4-yl)-1H-pyrrolo[2,3-b]pyridine]",105 nM
15,"COc1cncc(-c2c[nH]c3nccc(N4CCOCC4)c23)c1 [Example 42, 3-(5-methoxypyridin-3-yl)-4-(morpholin-4-yl)-1H-pyrrolo[2,3-b]pyridine]",240 nM
16,"Cc1[nH]c2nccc(N3CCOCC3)c2c1-c1cccc(C#N)n1 [Example 43, 6-[2-methyl-4-(morpholin-4-yl)-1H-pyrrolo[2,3-b]pyridin-3-yl]pyridine-2-carbonitrile]",31.9 nM
17,"Cn1cc(-c2c[nH]c3ncc(C#N)c(N4CCOCC4)c23)cn1 [Example 44, 3-(1-methyl-1H-pyrazol-4-yl)-4-(morpholin-4-yl)-1H-pyrrolo[2,3-b]pyridine-5-carbonitrile]",143 nM
18,"N#Cc1cccc(-c2c[nH]c3ncc(C#N)c(N4CCOCC4)c23)c1F [Example 45, 3-(3-cyano-2-fluorophenyl)-4-(morpholin-4-yl)-1H-pyrrolo[2,3-b]pyridine-5-carbonitrile]",20.4 nM
19,"Cc1cc(F)cc(-c2c[nH]c3ncc(C#N)c(N4CCOCC4)c23)c1 [Example 46, 3-(3-fluoro-5-methylphenyl)-4-(morpholin-4-yl)-1H-pyrrolo[2,3-b]pyridine-5-carbonitrile]",29.6 nM
20,"N#Cc1cc(CO)cc(-c2c[nH]c3nccc(N4CCOCC4)c23)c1 [Example 49, 3-(hydroxymethyl)-5-[4-(morpholin-4-yl)-1H-pyrrolo[2,3-b]pyridin-3-yl]benzonitrile]",50.8 nM
21,"Fc1ccc(-c2c[nH]c3nccc(N4CCOCC4)c23)cc1 [Example 50, 3-(4-fluorophenyl)-4-(morpholin-4-yl)-1H-pyrrolo[2,3-b]pyridine]",191 nM
22,"Cc1cncc(-c2c(C)[nH]c3nccc(N4CCOCC4)c23)c1 [Example 51, 2-methyl-3-(5-methylpyridin-3-yl)-4-(morpholin-4-yl)-1H-pyrrolo[2,3-b]pyridine]",191 nM
23,"Cc1[nH]c2nccc(N3CCOCC3)c2c1-c1cccc(Cl)c1 [Example 52, 3-(3-chlorophenyl)-2-methyl-4-(morpholin-4-yl)-1H-pyrrolo[2,3-b]pyridine]",158 nM
